Measurements published in patent publication US7439343B2, “Aminoglycoside-polyamine displacers and methods of use in displacement chromatography” (Rensselaer Polytechnic Institute, priority 2005, dated 2008).

Tests used:
[1] = target: horse cytochrome-C on HP Sepharose SP; assay: Batch displacement assay, cytochrome-C on HP Sepharose SP; assay type: binding; conditions: input displacer concentration displacing 50% of bound protein; 50 mM phosphate, pH 6.0
Excerpt: (§1) A modified batch displacement assay was used to investigate displacer efficacy of the carbohydrate derivatives over a wide range of concentrations. The carbohydrate derivatives from hereon will be referred to as the displacer candidates unless otherwise specified. Different input concentrations of the displacer candidates were employed to determine the DC50 value, which is the input displacer concentration required to displace fifty percent of the initially bound protein. The lower the DC50 value the more efficacious is the displacer candidate.
(§2) Table 1 is of displacer candidates and their respective DC50 values of horse cytochrome-C on HP Sepharose SP and Source 15S cation exchange resins in accordance with the present invention. Column 201 is the displacer candidate evaluated. Column 202 is DC50 values of horse cytochrome-C on HP Sepharose SP. Column 203 is the DC50 values of horse cytochrome-C on Source 15S cation exchange resin. The above approach was employed to determine the DC50 values of the displacer candidates for the displacement of horse cytochrome-C on HP Sepharose SP and Source 15S cation exchange resins at pH 6.0.
(§3) The bulk stationary phase (HP Sepharose SP or Source 15S) was first washed once with de-ionized water and then three times with the buffer, (50 mM phosphate, pH 6.0) and allowed to equilibrate for 2 hours. After gravity-settling of the stationary phase, the supernatant was removed and 3.0 mL of the remaining stationary phase slurry was equilibrated with 36 ml containing 3 mg/ml of the protein (horse heart cytochrome-C or chicken egg lysozyme) in 50 mM phosphate buffer, pH 6.0, at 20° C.
(§4) The protein was equilibrated with the resin for five hours in order to attain complete equilibration during which, the stationary phase was allowed to gravity-settle. Upon settling, the supernatant was removed and the protein content in the supernatant was determined using absorbance detection at 280 or 405 nm using a plate reader. The mass of the protein adsorbed on the stationary phase was determined by mass balance.
(§5) For the screening experiments, 300 μL of different initial concentrations (ranging from 0.3 to 5 mM) of a displacer solution was added to 25 μL aliquots of the stationary phase slurry with bound protein. (note: a different displacer candidate and concentration were employed for each vial to enable parallel screening). The system was equilibrated for 5 h. After equilibrium was achieved, the supernatant was removed and the protein content was determined by absorbance detection at 280 or 405 nm using a plate reader.
(§6) The percent protein displaced, was calculated for each aliquot based on the protein mass balance and the data was plotted as a function of the initial displacer concentration. The resulting plots were then employed to determine the initial displacer concentration required to displace fifty percent of the adsorbed protein (i.e. the DC50).

[2] = target: horse cytochrome-C on Source 15S cation exchange resin; assay: Batch displacement assay, cytochrome-C on Source 15S; assay type: binding; conditions: input displacer concentration displacing 50% of bound protein; 50 mM phosphate, pH 6.0
Excerpt: as §1
as §2, with “Column” for “Table 1 is of displacer candidates and their respective DC50 values of horse cytochrome-C on HP Sepharose SP and Source 15S cation exchange resins in accordance with the present invention. Column”
The influence of the stationary phase on displacer affinity was investigated using a second strong cation exchange resin, Source 15S.
as §3, §4, §5, §6

[3] = tested on: DNA; assay: Ethidium bromide displacement assay (DNA binding); parameters: species or system calf; conditions: 96-well format
Excerpt: A method for condensing DNA comprising combining the DNA with at least one of the aforementioned derivatives of a carbohydrate compound wherein the DNA is bound to the carbohydrate compound is presented in accordance with the present invention. FIG. 3 depicts a graph of DNA binding efficacy of the displacer candidates in an embodiment of the present invention. The Y axis is % fluorescence decreased and the X axis is the carbohydrate derivative evaluated.
Referring to FIG. 3, an ethidium bromide displacement assay was employed to evaluate the DNA-binding affinity of carbohydrate derivatives in a 96-well format. Using this screen, the percent fluorescence decreased was used as a parameter to rank the DNA-binding efficacy of the various compounds.

[4] = tested on: chicken-egg lysozyme adsorbed on HP Sepharose SP; assay: Batch displacement assay, lysozyme on HP Sepharose SP; assay type: binding; conditions: displacer concentration 2.5 mM
Experimental: FIG. 2 depicts a graph comparing the % lysozyme and % cytochrome-C displaced on HP Sepharose SP in accordance with the present invention. The Y axis is % protein displaced. The X axi is the displacer candidate evaluated. The displacer candidate concentration is 2.5 mM in an embodiment of the present invention. In order to evaluate the displacer candidates with another protein, experiments were carried out with chicken-egg lysozyme adsorbed on HP Sepharose SP. Referring to FIG. 2, a comparison of the percent protein displaced for both lysozyme and cytochrome-C at displacer concentrations of 2.5 mM is shown. The data is arranged in increasing order of percent lysozyme displaced. […] Upon settling, the supernatant was removed and the protein content in the supernatant was determined using absorbance detection at 280 or 405 nm using a plate reader. The mass of the protein adsorbed on the stationary phase was determined by mass balance. […] After equilibrium was achieved, the supernatant was removed and the protein content was determined by absorbance detection at 280 or 405 nm using a plate reader. The percent protein displaced, was calculated for each aliquot based on the protein mass balance and the data was plotted as a function of the initial displacer concentration. […]

SMILES: NCCCNCCCCNCCCNC(=O)OC1CC(n2cnc3c(N)ncnc32)OC1CO (stereo not drawn) [compound 9]
- DC50 [1]: 12300 ± 250 µM
- DC50 [2]: 12900 ± 1460 µM

SMILES: NCCCNCCCCNCCCN [Spermine, spermine, reference compound]
- DC50 [1]: 4800 µM
- DC50 [2]: 4300 ± 640 µM
- % fluorescence decreased [3]: relatively low efficacies

SMILES: NCCCNCCCCNCCCNC(=O)NCC1OC(OC2C(NC(=O)NCCCNCCCCNCCCN)CC(NC(=O)NCCCNCCCCNCCCN)C(OC3OC(CO)C(O)C(NC(=O)NCCCNCCCCNCCCN)C3O)C2O)C(O)C(O)C1O (stereo not drawn) [23c, kanamycin A tetraspermine]
- DC50 [1]: 1000 µM
- DC50-Cytochrome C on HP Sepharose SP [1]: sub-millimolar
- DC50 [2]: 900 µM

SMILES: NCCN [Ethylenediamine, ethylenediamine, reference compound]
- DC50 [1]: 20200 ± 2670 µM
- DC50 [2]: 17600 ± 2150 µM

SMILES: NCC1OC(OC2C(CO)OC(OC3C(O)C(N)CC(N)C3OC3OC(CN)C(O)C(O)C3N)C2O)C(N)C(O)C1O (stereo not drawn) [Neomycin, neomycin, reference compound]
- DC50 [1]: 2800 µM
- DC50 [2]: 1700 ± 20 µM
- % fluorescence decreased [3]: relatively low efficacies

SMILES: NCCNC(=O)NCC1OC(OC2C(NC(=O)NCCN)CC(NC(=O)NCCN)C(O)C2O)C(NC(=O)NCCN)C(O)C1O (stereo not drawn) [17a]
- DC50 [1]: 2100 µM
- DC50 [2]: 2300 ± 40 µM

SMILES: NCCCNCCCCNCCCNC(=O)NC1C(OCc2ccccc2)OC(COC(=O)NCCCNCCCCNCCCN)C(O)C1O (stereo not drawn) [4c]
- DC50 [1]: 1300 µM
- DC50 [2]: 800 µM
- DC50-Cytochrome C on Source 15S [2]: sub-millimolar

SMILES: NCCCNCCCCNCCCNC(=O)NC1C(O)OC(COC(=O)NCCCNCCCCNCCCN)C(O)C1O (stereo not drawn) [4a]
- DC50 [1]: 2800 µM
- DC50 [2]: 900 µM
- DC50-Cytochrome C on Source 15S [2]: sub-millimolar

SMILES: NC[C@H]1O[C@H](O[C@H]2[C@H](O)[C@@H](O)[C@H](N)C[C@@H]2N)[C@H](N)[C@@H](O)[C@@H]1O [Neamine, neamine, reference compound]
- DC50 [1]: 5600 µM
- DC50 [2]: 4900 ± 1670 µM

SMILES: NCCNC(=O)NCC1OC(OC2C(CO)OC(OC3C(O)C(NC(=O)NCCN)CC(NC(=O)NCCN)C3OC3OC(CNC(=O)NCCN)C(O)C(O)C3NC(=O)NCCN)C2O)C(NC(=O)NCCN)C(O)C1O (stereo not drawn) [14a]
- DC50 [1]: 1600 µM
- DC50-Cytochrome C on HP Sepharose SP [1]: highest affinity among the neomycin derivatives
- DC50 [2]: 1300 ± 90 µM

SMILES: NCCCNCCCCNCCCNC(=O)Nc1ncnc2c1ncn2C1CC(OC(=O)NCCCNCCCCNCCCN)C(COC(=O)NCCCNCCCCNCCCN)O1 (stereo not drawn) [compound 11]
- DC50 [1]: 2300 µM
- DC50 [2]: 1100 ± 140 µM

SMILES: NCCCNCCCCNCCCNC(=O)NCC1OC(OC2C(NC(=O)NCCCNCCCCNCCCN)CC(NC(=O)NCCCNCCCCNCCCN)C(O)C2O)C(NC(=O)NCCCNCCCCNCCCN)C(O)C1O (stereo not drawn) [17b, neamine tetraspermine]
- DC50 [1]: 700 µM
- DC50-Cytochrome C on HP Sepharose SP [1]: sub-millimolar
- DC50 [2]: 600 µM
- percent protein displaced (lysozyme) [4]: 52.8%

SMILES: NC[C@H]1O[C@H](O[C@H]2[C@H](O)[C@@H](O[C@H]3O[C@H](CO)[C@@H](O)[C@H](N)[C@H]3O)[C@H](N)C[C@@H]2N)[C@H](N)[C@@H](O)[C@@H]1O [Bekanamycin, bekanamycin, reference compound]
- DC50 [1]: 6200 ± 370 µM
- DC50 [2]: 3100 ± 2290 µM
- % fluorescence decreased [3]: relatively low efficacies

SMILES: NCCNCCN [Diethylenetriamine, diethylenetriamine, reference compound]
- DC50 [1]: 10800 ± 190 µM
- DC50 [2]: 14400 ± 3670 µM

SMILES: NCCCNCCCCNCCCNC(=O)OCC1OC(n2cnc3c(N)ncnc32)CC1O (stereo not drawn) [compound 7]
- DC50 [1]: 11700 ± 100 µM
- DC50 [2]: 6200 ± 460 µM

SMILES: NCCNC(=O)NCC1OC(OC2C(NC(=O)NCCN)CC(NC(=O)NCCN)C(OC3OC(CO)C(O)C(NC(=O)NCCN)C3O)C2O)C(O)C(O)C1O (stereo not drawn) [23a]
- DC50 [1]: 2000 ± 150 µM
- DC50 [2]: 1700 ± 20 µM

SMILES: NCCNC(=O)NCC1OC(OC2C(NC(=O)NCCN)CC(NC(=O)NCCN)C(OC3OC(CO)C(O)C(NC(=O)NCCN)C3O)C2O)C(N)C(O)C1O (stereo not drawn) [compound 24]
- DC50 [1]: 1900 ± 10 µM
- DC50 [2]: 1900 ± 60 µM

SMILES: COC1OC(CO)C(OC2OC(CNC(=O)NCCNCCN)C(O)C(O)C2NC(=O)NCCNCCN)C1O (stereo not drawn) [20a]
- DC50 [1]: 9400 ± 2650 µM
- DC50 [2]: 4800 ± 30 µM

SMILES: NCCCCNCCCN [Spermidine, spermidine, reference compound]
- DC50 [1]: 7700 ± 1440 µM
- DC50 [2]: 5800 ± 440 µM
- % fluorescence decreased [3]: relatively low efficacies

SMILES: COC1OC(CO)C(OC2OC(CNC(=O)NCCCNCCCCNCCCN)C(O)C(O)C2NC(=O)NCCCNCCCCNCCCN)C1O (stereo not drawn) [20b]
- DC50 [1]: 1100 µM
- DC50 [2]: 800 ± 40 µM
- DC50-Cytochrome C on Source 15S [2]: sub-millimolar

SMILES: COC1OC(COC(=O)NCCCNCCCCNCCCN)C(O)C(O)C1NC(=O)NCCCNCCCCNCCCN (stereo not drawn) [4b]
- DC50 [1]: 3600 µM
- DC50 [2]: 800 µM
- DC50-Cytochrome C on Source 15S [2]: sub-millimolar

SMILES: NCCCNCCCCNCCCNC(=O)NC1C(OCc2ccccc2)OC(COC(=O)NCCCNCCCCNCCCN)C(O)C1O (stereo not drawn) [4d]
- DC50 [1]: 2800 ± 200 µM
- DC50 [2]: 800 µM
- DC50-Cytochrome C on Source 15S [2]: sub-millimolar
